Measured values published in US6225350A, “Butyrate prodrugs derived from lactic acid” (Vertex Pharmaceuticals, Inc., priority 1999, dated 2001).

How the values were obtained:
[1] = test system: Fetal hemoglobin cells (F cells); assay: Efficacy study in anemic rhesus monkeys: %F cells; assay type: in vivo; details: for %F cell count: 8-10% before Phase I
[2] = rhesus monkey, in vivo
Protocol: The efficacy of compound IIIc administered in conjunction with hydroxyurea was tested on six anemic rhesus monkeys divided into three groups of two each. Each group was studied in two phases, as shown below. Fetal hemoglobin cells (F cells), Hemoglobin F level in total Hemoglobin (%Hb F) and %y globin chain levels were monitored before and after each of the two phases. %F cells were measured according to the protocol described in Betke et al, Blut., 4, pp. 241-9 (1958). %Hb F and %y globin chain synthesis were measured using High Performance Liquid Chromatography (HPLC) according to the protocol described in Huisman, J. Chromagtogr., 418, pp. 277 (1987).

Hemoglobin F = assay: Efficacy study in anemic rhesus monkeys: %Hb F by HPLC; assay type: in vivo
y globin chain = assay: Efficacy study in anemic rhesus monkeys: %y globin chain by HPLC; assay type: in vivo
[3] = in vivo; cited from earlier work
pancreatic cancer cells = details: cited from earlier work
[4] = test system: retinoblastoma cell lines; details: Human Y-79 retinoblastoma cell line; cited from earlier work
[5] = test system: colorectal carcinoma cell lines; details: cited from earlier work
leukemia = details: cited from earlier work
Erythroleukemic Cells = details: cited from earlier work
[6] = Group I (hydroxyurea in Phase I, hydroxyurea + compound IIIc in Phase II)

With `NC(=O)NO` [Hydroxyurea] the “%F cell count” value ([1]; Animal 1, group I, end of Phase I (hydroxyurea 50 mg/kg/day, 5 weeks)) was 25%, the “levels of ALT prior to or during the phases” value [2] was “no detectable difference” and the “levels of the triglycerides prior to or during the phases” value [2] was “no detectable difference”. For the same molecule, the “%Hb F, change” value (Hemoglobin F; [6]) was “measurable increase” and the “%y-globin chain level, change” value (y globin chain; [6]) was “measurable increase”.
In the case of `CCCC(=O)OCOC(=O)C(C)(C)C` [AN-9], the “metabolites / toxic effects” value [3] is listed as “elicit metabolites that may produce formaldehyde in vivo, leading to toxic effects in patients”.
For `CCCC(=O)O[C@@H](C)C(=O)OCC` [Compound IIIc], the “%F cell count” value ([1]; Animal 2, group II, end of Phase I (compound IIIc 1 g/kg/day, 5 weeks)) was 15%, the “%F cell count” value ([1]; Animal 2, group II, end of Phase II (compound IIIc 1 g/kg/TID, 5 weeks)) was 22% and the “%F cells, change” value ([1]; Groups II and III) was “small but significant increase”. For the same molecule, the “levels of ALT prior to or during the phases” value [2] was “no detectable difference”, the “levels of the triglycerides prior to or during the phases” value [2] was “no detectable difference” and the “HBf level, change” value (Hemoglobin F; Groups II and III) was “no measurable change”. The “Y-globin chain level, change” value (y globin chain; Groups II and III) was “no measurable change”.
For `CCCC(=O)[O-].[Na+]` [Sodium butyrate], the “antigen expression in pancreatic cancer cells” value (pancreatic cancer cells) is listed as “modify antigen expression”, the “apoptosis in retinoblastoma cell lines” value [4] is listed as “induce apoptosis” and the “apoptosis in colorectal carcinoma cell lines” value [5] is listed as “induce apoptosis”.
For `CCCC(=O)O` [butyric acid], the “effects in leukemia patients” value (leukemia) is given as “promising effects in leukemia patients” and the “cell differentiation in vitro” value (Erythroleukemic Cells) is given as “induces cell differentiation”.
